This passage reports T/C results from PubChem BioAssay AID192 (DTP/NCI, 2004).

Values joined by “and” are separate entries in the source; they are usually repeats but may differ in a detail not shown here. Identical values can stand only once. Inconclusive results and toxic doses are left out.

The test relates to BDF1 mice, B16 melanoma ip, median survival T/C. Nature of the test: NCI In Vivo Anticancer Drug Screen. Data for tumor model B16 Melanoma (intraperitoneal) in B6D2F1 (BDF1) mice. The settings on record: endpoint: median survival time, higher = longer survival. A digest of the protocol:
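Transplantable tumor model; survival or tumor size measured; reported as T/C, treated over vehicle control.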

Setting [1] is: dose: 6.25 mg/kg/injection, schedule: Q01DX009 (ip), vehicle: saline.
Where [2] appears, read: dose: 12.5 mg/kg/injection, schedule: Q01DX009 (ip), vehicle: saline.
Where [3] appears, read: dose: 25.0 mg/kg/injection, schedule: Q01DX009 (ip), vehicle: saline.
[4] abbreviates: dose: 50.0 mg/kg/injection, schedule: Q01DX009 (ip), vehicle: Klucel (hydroxypropylcellulose) (HPC).
Setting [5] is: dose: 50.0 mg/kg/injection, schedule: Q04DX003 (ip), vehicle: Klucel (hydroxypropylcellulose) (HPC).
Where [6] appears, read: dose: 100.0 mg/kg/injection, schedule: Q04DX003 (ip), vehicle: Klucel (hydroxypropylcellulose) (HPC).
[7] abbreviates: dose: 200.0 mg/kg/injection, schedule: Q04DX003 (ip), vehicle: Klucel (hydroxypropylcellulose) (HPC).
The mark [8] stands for this setting: dose: 100.0 mg/kg/injection, schedule: Q01DX009 (ip), vehicle: saline with Tween-80.
[9] abbreviates: dose: 200.0 mg/kg/injection, schedule: Q01DX009 (ip), vehicle: saline with Tween-80.
Setting [10] is: dose: 400.0 mg/kg/injection, schedule: Q01DX009 (ip), vehicle: saline with Tween-80.
[11] abbreviates: dose: 25.0 mg/kg/injection, schedule: Q01DX009 (ip), vehicle: saline with Tween-80.
Setting [12] is: dose: 50.0 mg/kg/injection, schedule: Q01DX009 (ip), vehicle: saline with Tween-80.
Setting [13] is: dose: 25.0 mg/kg/injection, schedule: Q01DX009 (ip), vehicle: distilled water + Tween-80.
Where [14] appears, read: dose: 50.0 mg/kg/injection, schedule: Q01DX009 (ip), vehicle: saline.
Where [15] appears, read: dose: 100.0 mg/kg/injection, schedule: Q01DX009 (ip), vehicle: Klucel (hydroxypropylcellulose) (HPC).

For `COC1N(C2CC(O)C(CO)O2)C(=O)NC(=O)C1(F)Br` (configuration not stated), the T/C by setting is: (dose: 1.56 mg/kg/injection, schedule: Q01DX009 (ip), vehicle: saline) 100 % of control; (dose: 3.12 mg/kg/injection, schedule: Q01DX009 (ip), vehicle: saline) 87 % of control; (dose: 5.0 mg/kg/injection, schedule: Q01DX009 (ip), vehicle: saline with Tween-80) 106 % of control; under setting [1], 102 % of control; (dose: 10.0 mg/kg/injection, schedule: Q01DX009 (ip), vehicle: saline with Tween-80) 109 % of control; under setting [2], 108 % of control. The T/C (dose: 20.0 mg/kg/injection, schedule: Q01DX009 (ip), vehicle: saline with Tween-80) was 104 % of control and the T/C under setting [3] was 88 % of control.
With `COc1ccc(C(C#N)N2CCOCC2)cc1` (configuration not stated), the T/C is 89 % of control under setting [4], 95 % of control under setting [5] and 97 % of control under setting [6].
Regarding `NC(=O)c1ncn(C2OC(CO)C(O)C2O)n1` (configuration not stated), the T/C was 90 % of control (dose: 20.0 mg/kg/injection, schedule: Q01DX009 (ip), vehicle: saline); 102 % of control (dose: 40.0 mg/kg/injection, schedule: Q01DX009 (ip), vehicle: saline); 102 % of control under setting [5]; 97 % of control (dose: 80.0 mg/kg/injection, schedule: Q01DX009 (ip), vehicle: saline); 95 % of control under setting [6]; 108 % of control (dose: 160.0 mg/kg/injection, schedule: Q01DX009 (ip), vehicle: saline). In addition, under setting [7], the T/C was 98 % of control.
For `CCN(C(=O)Nc1cccc(Cl)c1)c1ccccc1`, the T/C by setting is: under setting [8], 102 % of control; under setting [9], 100 % of control; under setting [10], 110 % of control.
The matching figures for `CCC(=O)Nc1ccc(C)c(Cl)c1`: 105 % of control, 105 % of control and 115 % of control.
`COC(=O)C1C2CC(C3OC23)C1C(=O)OC` (configuration not stated): the T/C was 94 % of control under setting [6]; 100 % of control under setting [7]; 96 % of control (dose: 400.0 mg/kg/injection, schedule: Q04DX003 (ip), vehicle: Klucel (hydroxypropylcellulose) (HPC)).
As to `CCN(CC)CCOC(=O)c1ccc(NC(=O)Nc2ccc(C(=O)OCCN(CC)CC)cc2)cc1`, the T/C is 95 % of control under setting [1]; 88 % of control under setting [2]; 97 % of control under setting [11]; 102 % of control under setting [3]; 110 % of control under setting [12]; 108 % of control under setting [8].
With `CN(C)CCN1C(=O)c2cccc3cc(N)cc(c23)C1=O`, the T/C was 99 % of control (dose: 1.0 mg/kg/injection, schedule: Q01DX009 (ip), vehicle: acid diluted with saline); 110 % of control (dose: 2.0 mg/kg/injection, schedule: Q01DX009 (ip), vehicle: acid diluted with saline); 114 % of control (dose: 4.0 mg/kg/injection, schedule: Q01DX009 (ip), vehicle: acid diluted with saline); 122 % of control (dose: 8.0 mg/kg/injection, schedule: Q01DX009 (ip), vehicle: acid diluted with saline); 155 % of control (dose: 16.0 mg/kg/injection, schedule: Q01DX009 (ip), vehicle: acid diluted with saline).
On to `Oc1cc2c3c(c1)c1cc4c(cc1c[n+]3CC2)OCO4`, for which the T/C (dose: 1.56 mg/kg/injection, schedule: Q01DX009 (ip), vehicle: distilled water + Tween-80) is 117 % of control; the T/C (dose: 3.12 mg/kg/injection, schedule: Q01DX009 (ip), vehicle: water) was 115 % of control; the T/C (dose: 3.13 mg/kg/injection, schedule: Q01DX009 (ip), vehicle: distilled water + Tween-80) was 113 % of control; the T/C (dose: 6.25 mg/kg/injection, schedule: Q01DX009 (ip), vehicle: water) is 118 % of control; the T/C under setting [13] is 119 % of control; the T/C (dose: 50.0 mg/kg/injection, schedule: Q01DX009 (ip), vehicle: water) is 124 % of control.
As for `Cc1cc2nc3[nH]c4ccccc4c3nc2cc1C`, the T/C is, setting by setting: under setting [11], 97 % of control; under setting [12], 97 % of control; under setting [9], 86 % of control.
On to `CCC(=O)c1ccc2c(c1)N(C(C)CN(C)C)c1ccccc1S2` (configuration not stated), for which the T/C is 120 % of control under setting [2], 110 % of control under setting [3] and 105 % of control under setting [14].
For the compound `CCCCCC[C@H]([C@H](C)O)n1cnc2c(N)ncnc21`, the T/C by setting is: (dose: 6.25 mg/kg/injection, schedule: Q01DX009 (ip), vehicle: Klucel (hydroxypropylcellulose) (HPC)) 93 % of control; (dose: 12.5 mg/kg/injection, schedule: Q01DX009 (ip), vehicle: Klucel (hydroxypropylcellulose) (HPC)) 86 % of control; (dose: 25.0 mg/kg/injection, schedule: Q01DX009 (ip), vehicle: Klucel (hydroxypropylcellulose) (HPC)) 93 % of control and 94 % of control; under setting [4], 93 % of control and 106 % of control; under setting [15], 104 % of control.
Turning to `CCOC(=O)CC1=CCCCC1`, the T/C by setting is: (dose: 70.0 mg/kg/injection, schedule: Q01DX009 (ip), vehicle: Klucel (hydroxypropylcellulose) (HPC)) 100 % of control; (dose: 140.0 mg/kg/injection, schedule: Q01DX009 (ip), vehicle: Klucel (hydroxypropylcellulose) (HPC)) 106 % of control; (dose: 280.0 mg/kg/injection, schedule: Q01DX009 (ip), vehicle: Klucel (hydroxypropylcellulose) (HPC)) 100 % of control.
On to `OC(C1CO1)(C(F)(F)F)C(F)(F)F` (configuration not stated), for which the T/C runs as follows: under setting [14], 92 % of control; (dose: 100.0 mg/kg/injection, schedule: Q01DX009 (ip), vehicle: saline) 90 % of control; (dose: 200.0 mg/kg/injection, schedule: Q01DX009 (ip), vehicle: saline) 92 % of control.
Turning to `COc1ccccc1NC(=O)Nc1ccccc1`, the T/C was 104 % of control under setting [15]; 103 % of control (dose: 200.0 mg/kg/injection, schedule: Q01DX009 (ip), vehicle: Klucel (hydroxypropylcellulose) (HPC)); 109 % of control (dose: 400.0 mg/kg/injection, schedule: Q01DX009 (ip), vehicle: Klucel (hydroxypropylcellulose) (HPC)).
For the compound `CCCCCCOC(CN(C)C)C(Cl)(Cl)Cl` (configuration not stated), the T/C is 100 % of control (dose: 12.5 mg/kg/injection, schedule: Q01DX009 (ip), vehicle: distilled water + Tween-80); 101 % of control (dose: 12.5 mg/kg/injection, schedule: Q01DX009 (ip), vehicle: saline with Tween-80); 97 % of control under setting [13]; 105 % of control under setting [11]; 94 % of control (dose: 50.0 mg/kg/injection, schedule: Q01DX009 (ip), vehicle: distilled water + Tween-80); 102 % of control under setting [12]. The T/C (dose: 100.0 mg/kg/injection, schedule: Q01DX009 (ip), vehicle: distilled water + Tween-80) is 89 % of control; the T/C under setting [8] is 90 % of control; the T/C under setting [9] was 89 % of control.
In the case of `CO[C@H](/C(C)=C/C=C/C(C)=C/c1coc(C)n1)[C@H](C)[C@H]1C[C@@H](O)[C@@]2(C)O[C@H]2/C=C/[C@@H](C)[C@@H]2C[C@@H](CC(=O)O2)C[C@H]2O[C@@H]2C(=O)O1`, the T/C is 153 % of control (dose: 0.4 mg/kg/injection, schedule: Q01DX009 (ip), vehicle: Klucel (hydroxypropylcellulose) (HPC)) and 181 % of control (dose: 0.5 mg/kg/injection, schedule: Q01DX009 (sc), vehicle: Klucel (hydroxypropylcellulose) (HPC)).
As for `CN(C)c1ccc(C(N)=O)cn1`, the T/C (dose: 1.5 mg/kg/injection, schedule: Q01DX009 (ip), vehicle: Klucel (hydroxypropylcellulose) (HPC)) is 124 % of control.
As for `CC1C2CCC(C2)C1C(=O)O` (configuration not stated), the T/C by setting is: (dose: 100.0 mg/kg/injection, schedule: Q04DX003 (ip), vehicle: other) 102 % of control; (dose: 200.0 mg/kg/injection, schedule: Q04DX003 (ip), vehicle: other) 102 % of control; (dose: 400.0 mg/kg/injection, schedule: Q04DX003 (ip), vehicle: other) 89 % of control.
On to `Cc1cc(Cl)ccc1OCC(=O)Nc1nc(N)nc(N)n1`, for which the T/C is, setting by setting: (dose: 12.5 mg/kg/injection, schedule: Q04DX009 (ip), vehicle: Klucel (hydroxypropylcellulose) (HPC)) 88 % of control; (dose: 25.0 mg/kg/injection, schedule: Q04DX009 (ip), vehicle: Klucel (hydroxypropylcellulose) (HPC)) 92 % of control; (dose: 50.0 mg/kg/injection, schedule: Q04DX009 (ip), vehicle: Klucel (hydroxypropylcellulose) (HPC)) 87 % of control.
